These molecules were tested against full-length recombinant human FYN A (Homo sapiens (Human), UniProt P06241) (assay: ADP-Glo Kinase Assay of FYN kinase inhibition). Settings: primary screen, initial compounds.
Assay type: biochemical
How it was run: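 GST-tagged full-length FYN A (baculovirus, Sf9) at 3 pg preincubated 30 min RT with compound (10-point 3-fold series from 10 μM) in Tris pH 7.5/MgCl2 buffer. 12-mer tyrosine peptide plus 12.5 pmol ATP added, 90 min RT; ADP measured by ADP-Glo luminescence, IC50 from dose-response.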

Sequence of full-length recombinant human FYN A (P06241 whole entry): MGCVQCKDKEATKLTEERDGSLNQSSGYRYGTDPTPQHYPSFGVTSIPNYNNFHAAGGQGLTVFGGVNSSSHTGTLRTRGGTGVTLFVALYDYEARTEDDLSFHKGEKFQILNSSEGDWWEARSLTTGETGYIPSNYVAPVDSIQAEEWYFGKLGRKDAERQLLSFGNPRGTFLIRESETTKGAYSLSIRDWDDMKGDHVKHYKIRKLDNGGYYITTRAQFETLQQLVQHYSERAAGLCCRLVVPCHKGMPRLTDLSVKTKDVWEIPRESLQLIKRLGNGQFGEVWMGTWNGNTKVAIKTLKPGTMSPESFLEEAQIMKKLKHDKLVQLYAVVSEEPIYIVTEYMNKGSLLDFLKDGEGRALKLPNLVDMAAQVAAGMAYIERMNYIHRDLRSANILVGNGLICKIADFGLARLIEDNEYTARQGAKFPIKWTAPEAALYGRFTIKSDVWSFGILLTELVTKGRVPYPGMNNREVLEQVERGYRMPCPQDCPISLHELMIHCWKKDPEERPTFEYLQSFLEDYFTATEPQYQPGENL

Row | Compound | IC50
1 | CC(C)N1CCN(c2ccc(-c3cn4c(-c5ccc(O)cc5)cnc4cn3)cc2)CC1 [388_0080_0182, 4-[6-[4-(4-isopropyl-piperazin-1-yl)phenyl]imidazo [1,2-a]pyrazin-3-yl]phenol] | 0.637 µM
2 | O=C(NCCO)c1cccc(-c2cn3c(-c4ccc(O)cc4)cnc3cn2)c1 [388_0080_0192, N-(2-hydroxy-ethyl)-3-[3-(4-hydroxyphenyl)imidazo[1,2-a]pyrazin-6-yl]benzamide] | 1.03 µM
3 | CN1CCN(c2ccc(-c3cn4c(-c5ccc(O)cc5)cnc4cn3)cc2)CC1 [388_0080_0218, 4-[6-[4-(4-methyl-piperazin-1-yl)phenyl]imidazo [1,2-a]pyrazin-3-yl]phenol] | 0.678 µM
4 | O=C(NCCO)c1ccc(-c2cn3c(-c4ccc(O)cc4)cnc3cn2)cc1 [388_0080_0328, N-(2-hydroxyethyl)-4-[3-(4-hydroxyphenyl)imidazo[1,2-a]pyrazin-6-yl]benzamide] | 0.641 µM
5 | CN(C)C(=O)c1cccc(-c2cn3c(-c4ccc(O)cc4)cnc3cn2)c1 [388_0080_0349, 3-[3-(4-hydroxyphenyl)imidazo[1,2-a]pyrazin-6-yl]-N,N-dimethyl-benzamide] | 0.974 µM
6 | Oc1ccc(-c2cnc3cnc(-c4cnn(Cc5ccccc5)c4)cn23)cc1 [388_0080_7469, 4-[6-(1-benzylpyrazol-4-yl)imidazo[1,2-a]pyrazin-3-yl]phenol] | 6.62 µM
7 | O=C(NC1CC1)c1ccc(-c2cn3c(-c4ccc(O)cc4)cnc3cn2)cc1 [388_0080_7489, N-cyclopropyl-4-[3-(4-hydroxyphenyl)imidazo[1,2-a]pyrazin-6-yl]benzamide] | 1.96 µM
8 | Nc1ccc(-c2cn3c(-c4ccc(O)cc4)cnc3cn2)cn1 [388_0080_7905, 4-[6-(6-amino-3-pyridyl)imidazo [1,2-a]pyrazin-3-yl]phenol] | 1.93 µM
9 | COc1cc(-c2cnc3cnc(-c4cccc(NS(C)(=O)=O)c4)cn23)cc(OC)c1OC [388_0087_6488, N-[3-[3-(3,4,5-trimethoxyphenyl)imidazo[1,2-a]pyrazin-6-yl]phenyl] methane-sulfonamide] | 2.8 µM
10 | COc1ccc(-c2cnc3cnc(-c4ccc(O)cc4)cn23)cc1 [388_0280_0080, 4-[3-(4-methoxyphenyl)imidazo[1,2-a]pyrazin-6-yl]phenol] | 10.5 µM
11 | COc1cc(-c2cnc3cnc(-c4ccc(NCCN5CCOCC5)nc4)cn23)ccc1O [388_0314_0003, 2-methoxy-4-[6-[6-(2-morpholinoethyl-amino)-3-pyridyl]imidazo [1,2-a]pyrazin-3-yl]phenol] | 1.35 µM
12 | COc1cc(-c2cnc3cnc(-c4ccccc4N(C)C)cn23)ccc1O [388_0314_0006, 4-[6-[2-(dimethylamino)phenyl]imidazo [1,2-a]pyrazin-3-yl]-2-methoxy-phenol] | 1.75 µM
13 | COc1cc(-c2cnc3cnc(-c4ccc(N5CCN(C)CC5)nc4)cn23)ccc1O [388_0314_0016, 2-methoxy-4-[6-[6-(4-methylpiperazin-1-yl)-3-pyridyl]imidazo [1,2-a]pyrazin-3-yl]phenol] | 1.13 µM
14 | COc1cc(-c2cnc3cnc(-c4cccnc4)cn23)ccc1O [388_0314_0071, 2-methoxy-4-[6-(3-pyridyl)imidazo[1,2-a]pyrazin-3-yl]phenol] | 3.07 µM
15 | COc1cc(-c2cnc3cnc(-c4ccc(C(=O)NCCCN(C)C)cc4)cn23)ccc1O [388_0314_0180, N-[3-(dimethylamino)propyl]-4-[3-(4-hydroxy-3-methoxy-phenyl)imidazo [1,2-a]pyrazin-6-yl]benzamide] | 0.606 µM
16 | COc1cc(-c2cnc3cnc(-c4cccc(C(=O)NCCO)c4)cn23)ccc1O [388_0314_0192, N-(2-hydroxyethyl)-3-[3-(4-hydroxy-3-methoxy-phenyl)imidazo [1,2-a]pyrazin-6-yl]benzamide] | 0.896 µM
17 | CCOc1cccc(-c2cn3c(-c4ccc(O)c(OC)c4)cnc3cn2)c1 [388_0314_0205, 4-[6-(3-ethoxyphenyl)imidazo[1,2-a]pyrazin-3-yl]-2-methoxy-phenol] | 1.36 µM
18 | COc1cc(-c2cnc3cnc(-c4ccc(C(=O)NCCN(C)C)cc4)cn23)ccc1O [388_0314_0327, N-(2-dimethylamino-ethyl)-4-[3-(4-hydroxy-3-methoxy-phenyl)imidazo [1,2-a]pyrazin-6-yl]benzamide] | 0.44 µM
19 | COc1cc(-c2cnc3cnc(-c4ccccc4Cl)cn23)ccc1O [388_0314_4027, 4-[6-(2-chlorophenyl)imidazo[1,2-a]pyrazin-3-yl]-2-methoxy-phenol] | 2.54 µM
20 | COc1cc(-c2cnc3cnc(-c4ccc(N)nc4)cn23)ccc1O [388_0314_7905, 4-[6-(6-amino-3-pyridyl)imidazo [1,2-a]pyrazin-3-yl]-2-methoxy-phenol] | 1.41 µM
21 | COc1cc(-c2cnc3cnc(-c4cnn(C)c4)cn23)ccc1O [388_0314_8400, 2-methoxy-4-[6-(1-methylpyrazol-4-yl)imidazo[1,2-a]pyrazin-3-yl]phenol] | 0.746 µM
22 | CC(=O)c1cccc(-c2cnc3cnc(-c4ccc(C(=O)NCCN(C)C)cc4)cn23)c1 [388_4145_0327, 4-[3-(3-acetylphenyl)imidazo[1,2-a]pyrazin-6-yl]-N-(2-dimethyl-aminoethyl) benzamide] | 4.07 µM
23 | Oc1ccc(-c2cn3c(-c4cccs4)cnc3cn2)cc1 [388_4147_0080, 4-[3-(2-thienyl)imidazo [1,2-a]pyrazin-6-yl]phenol] | 6.25 µM
24 | CN(C)CCNC(=O)c1ccc(-c2cn3c(-c4cccs4)cnc3cn2)cc1 [388_4147_0327, N-(2-dimethylamino-ethyl)-4-[3-(2-thienyl)imidazo [1,2-a]pyrazin-6-yl]benzamide] | 8.52 µM
25 | c1csc(-c2cn3c(-c4cccs4)cnc3cn2)c1 [388_4147_4147, 3,6-bis(2-thienyl)imidazo [1,2-a]pyrazine] | 5.03 µM
26 | Nc1ccc(-c2cn3c(-c4cccs4)cnc3cn2)cn1 [388_4147_7905, 5-[3-(2-thienyl)imidazo [1,2-a]pyrazin-6-yl]pyridin-2-amine] | 8.16 µM
27 | COc1cc(OC)cc(-c2cnc3cnc(-c4ccc(C(=O)NCCCN(C)C)cc4)cn23)c1 [388_7492_0180, 4-[3-(3,5-dimethoxyphenyl)imidazo[1,2-a]pyrazin-6-yl]-N-[3-(dimethyl-amino)propyl] benzamide] | 6.69 µM
28 | CCCN1CCc2nc(Nc3cc(OC)c(OC)c(OC)c3)ncc2C1 [582_9377_5632, 6-propyl-N-(3,4,5-trimethoxy-phenyl)-7,8-dihydro-5H-pyrido[4,3-d]pyrimidin-2-amine] | 14.7 µM
29 | CCNC(=O)N1CCc2nc(Nc3cc(OC)c(OC)c(OC)c3)ncc2C1 [582_9377_5725, N-ethyl-2-(3,4,5-trimethoxy-anilino)-7,8-dihydro-5H-pyrido[4,3-d]pyrimidine-6-carboxamide] | 4.25 µM
30 | COc1ccccc1C(=O)N1Cc2cnc(Nc3cccc(N(C)C)c3)nc2C1 [585_9372_5053, [2-[3-(dimethylamino)anilino]-5,7-dihydropyrrolo [3,4-d]pyrimidin-6-yl]-(2-methoxyphenyl) methanone] | 10.1 µM

Same assay, conditions: secondary screen, re-synthesized and expanded compounds

Row | Compound | IC50
31 | c1csc(CNc2ccc3ncc(-c4ccncc4)n3n2)c1 [BF000145941, 3-(4-pyridyl)-N-(2-thienyl-methyl)-[1,2-a]pyridazin-6-amine] | 0.105 µM
32 | c1cc(-c2cnc3ccc(NCc4ccc5c(c4)OCO5)nn23)ccn1 [BF000146108, N-(1,3-benzodioxol-5-ylmethyl)-3-(4-pyridyl)-imidazo[1,2-b]pyridazin-6-amine] | 0.297 µM
33 | COc1ccc(-c2cnc3ccc(NCc4ccc5c(c4)OCO5)nn23)cc1OC [BF000146114, N-(1,3-benzodioxol-5-ylmethyl)-3-[3,4-dimethoxy-phenyl)-imidazo[1,2-b]pyridazin-6-amine] | 6.22 µM
34 | COc1cc(-c2cnc3ccc(NCc4ccc5c(c4)OCO5)nn23)ccc1O [BF000146126, 4-[6-(1,3-benzodioxol-5-ylmethyl-amino)-imidazo[1,2-b]pyridazin-3-yl]-2-methoxy-phenol] | 1.31 µM
35 | Nc1cccc(-c2cnc3ccc(NC4CCOCC4)nn23)c1 [BF000146142, 3-(3-aminophenyl)-N-tetrahydro-pyran-4-yl-imidazo[1,2-b]pyridazin-6-amine] | 1.42 µM
36 | COc1ccc(-c2cnc3ccc(NC4CCOCC4)nn23)cc1OC [BF000146153, 3-(3,4-dimethoxy-phenyl)-N-tetrahydro-pyran-4-yl-imidazo[1,2-b]pyridazin-6-amine] | 0.48 µM
37 | CC(=O)Nc1cccc(-c2cnc3ccc(NC4CCOCC4)nn23)c1 [BF000146155, N-[3-[6-(tetra-hydropyran-4-ylamino)-imidazo[1,2-b]pyridazin-3-yl)phenyl]-acetamide] | 0.397 µM
38 | COc1cccc(-c2cnc3ccc(NC4CCOCC4)nn23)c1 [BF000146183, 3-(3-methoxy-phenyl)-N-tetrahydro-pyran-4-yl-imidazo[1,2-b]pyridazin-6-amine] | 0.829 µM
39 | OCCCNc1ccc2ncc(-c3ccc4c(c3)OCO4)n2n1 [BF000146218, 3-[[3-(1,3-benzodioxol-5-yl)-imidazo[1,2-b]pyridazin-6-yl]amino]-propan-1-ol] | 0.708 µM
40 | COc1ccc(-c2cnc3ccc(NCCCO)nn23)cc1OC [BF000146224, 3-[[3-(3,4-dimethoxy-phenyl)-imidazo[1,2-b]pyridazin-6-yl]-amino]-propan-1-ol] | 0.725 µM
41 | COc1cc(-c2cnc3ccc(NCCCO)nn23)ccc1O [BF000146250, 4-[6-(3-hydroxy-propylamino)-imdazo[1,2-b]pyridazin-3-yl]-2-methoxy-phenol] | 0.206 µM
42 | CC(=O)Nc1cccc(-c2cnc3ccc(N[C@H](CO)C(C)C)nn23)c1 [BF000146300, N-[3-[6-[[(1S)-1-(hydroxy-methyl)-2-methyl-propyl]-amino]-imidazo[1,2-b]pyridazin-3-yl]-phenyl]acetamide] | 0.792 µM
43 | COc1cc(-c2cnc3ccc(N[C@H](CO)C(C)C)nn23)ccc1O [BF000146319, 4-[6-[[(1S)-1-(hydroxy-methyl)-2-methyl-propyl]-amino]-imidazo[1,2-b]pyridazin-3-yl]-2-methoxy-phenol] | 0.443 µM
